PMC6070649, “The solute transport and binding profile of a novel nucleobase cation symporter 2 from the honeybee pathogen Paenibacillus larvae” (FEBS Open Bio, 2018)

T1: PlUacP (P. larvae uric acid permease-like protein) (Paenibacillus larvae, UniProt V9VZQ8)
T1 construct: gene pbuX
T1 sequence (V9VZQ8 1-434): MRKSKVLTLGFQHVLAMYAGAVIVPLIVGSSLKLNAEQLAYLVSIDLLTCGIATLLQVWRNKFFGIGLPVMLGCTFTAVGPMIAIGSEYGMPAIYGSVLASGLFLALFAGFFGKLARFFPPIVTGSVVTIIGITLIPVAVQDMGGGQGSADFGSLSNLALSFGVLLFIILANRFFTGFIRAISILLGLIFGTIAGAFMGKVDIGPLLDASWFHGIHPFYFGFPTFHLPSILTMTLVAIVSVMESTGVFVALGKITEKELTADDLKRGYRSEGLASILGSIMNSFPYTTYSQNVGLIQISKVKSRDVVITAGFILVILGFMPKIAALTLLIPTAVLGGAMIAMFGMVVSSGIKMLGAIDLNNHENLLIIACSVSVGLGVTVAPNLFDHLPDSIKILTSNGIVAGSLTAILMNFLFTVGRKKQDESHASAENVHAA

B1: PlUacP (P. larvae uric acid permease-like protein) (Paenibacillus larvae subsp. larvae DSM 25430) (protein)
chain: T1 sequence (V9VZQ8 1-434)

These molecules were tested against T1, PlUacP (P. larvae uric acid permease-like protein) (assay: competition with [3H]-adenine uptake in yeast). Settings: competitive; 1 μM [2,8-3H]-adenine, 1 mM unlabelled competitor, S. cerevisiae RG191, 5 min.
Format: cell-based
In the case of `Nc1nc2[nH]cnc2c(=O)[nH]1` [guanine], the “% adenine uptake at 1 mM competitor” value is reported as “guanine, cytosine, hypoxanthine, xanthine, uric acid, and uracil all compete with adenine”. In the case of `O=c1[nH]c(=O)c2[nH]c(=O)[nH]c2[nH]1` [uric acid], the “% adenine uptake at 1 mM competitor” value is reported as “guanine, cytosine, hypoxanthine, xanthine, uric acid, and uracil all compete with adenine”. In the case of `Nc1cc[nH]c(=O)n1` [cytosine], the “% adenine uptake at 1 mM competitor” value is reported as “guanine, cytosine, hypoxanthine, xanthine, uric acid, and uracil all compete with adenine”. For `O=c1[nH]c(=O)c2[nH]cnc2[nH]1` [xanthine], the “% adenine uptake at 1 mM competitor” value was “guanine, cytosine, hypoxanthine, xanthine, uric acid, and uracil all compete with adenine”. For `O=c1[nH]cnc2nc[nH]c12` [hypoxanthine], the “% adenine uptake at 1 mM competitor” value was “guanine, cytosine, hypoxanthine, xanthine, uric acid, and uracil all compete with adenine”.

These molecules were tested on Nc1ncnc2nc[nH]c12 (assay: cells, lysate or membranes). Settings: labelled compound [2,8-3H]-adenine 0.1-30 μM, S. cerevisiae RG191, 10 min, 100 mM citrate pH 3.5, 1% glucose, Lineweaver-Burk.
B1 gave a Km of 7.04 ± 0.18 µM.
